In patent US6495525B1, “VLA-4 inhibitor: oMePUPA-V” (Biogen, Inc., priority 1998, dated 2002):

Key:
VLA-4 = VLA-4 (Homo sapiens, UniProt P05556+P13612); assay: Competition / dissociation assay with 3H-known inhibitor on Jurkat cells; type: binding; design: endogenous in cells; host or cells: Jurkat (human T cell line); conditions: Mn+2-activated VLA-4
Procedure: Jurkat cells were maintained in RPMI-1640 medium plus 10% fetal bovine serum at 37° C. in a tissue culture incubator. For binding studies, the cells were pelleted by centrifugation, washed two times with TBS (50 mM Tris HCl, 150 mM NaCl, 0.1% bovine serum albumin, 2 mM glucose, 10 mM HEPES pH 7.4), suspended at approximately 2×10^6 cells/ml in TBS, and counted using a Neubauer hemocytometer. The cells were further diluted to 1.5×10^6/ml in the buffers indicated and subjected to the specific treatments defined for each experiment. The cells were then pelleted by centrifugation, resuspended in 100 μl of assay buffer, and transferred to a scintillation vial containing 2.9 ml of ScintiVerse II (Fisher Scientific). Cell-associated radioactivity was quantified by scintillation counting. Counts bound under these conditions measures integrin that is not occupied by the test compound and is therefore free to bind the ^3H-known inhibitor. […] Specific counts bound were calculated by subtracting non-specific counts from total counts bound.
A series of competition studies were performed to verify that oMePUPA-V and the known inhibitor compete for the same site on VLA-4. […] Third, Mn^+2-activated Jurkat cells were treated with saturating amounts of oMePUPA-V, and the rate at which the oMePUPA-V dissociated was measured. […]

Sequence of VLA-4 (P13612 34-1032): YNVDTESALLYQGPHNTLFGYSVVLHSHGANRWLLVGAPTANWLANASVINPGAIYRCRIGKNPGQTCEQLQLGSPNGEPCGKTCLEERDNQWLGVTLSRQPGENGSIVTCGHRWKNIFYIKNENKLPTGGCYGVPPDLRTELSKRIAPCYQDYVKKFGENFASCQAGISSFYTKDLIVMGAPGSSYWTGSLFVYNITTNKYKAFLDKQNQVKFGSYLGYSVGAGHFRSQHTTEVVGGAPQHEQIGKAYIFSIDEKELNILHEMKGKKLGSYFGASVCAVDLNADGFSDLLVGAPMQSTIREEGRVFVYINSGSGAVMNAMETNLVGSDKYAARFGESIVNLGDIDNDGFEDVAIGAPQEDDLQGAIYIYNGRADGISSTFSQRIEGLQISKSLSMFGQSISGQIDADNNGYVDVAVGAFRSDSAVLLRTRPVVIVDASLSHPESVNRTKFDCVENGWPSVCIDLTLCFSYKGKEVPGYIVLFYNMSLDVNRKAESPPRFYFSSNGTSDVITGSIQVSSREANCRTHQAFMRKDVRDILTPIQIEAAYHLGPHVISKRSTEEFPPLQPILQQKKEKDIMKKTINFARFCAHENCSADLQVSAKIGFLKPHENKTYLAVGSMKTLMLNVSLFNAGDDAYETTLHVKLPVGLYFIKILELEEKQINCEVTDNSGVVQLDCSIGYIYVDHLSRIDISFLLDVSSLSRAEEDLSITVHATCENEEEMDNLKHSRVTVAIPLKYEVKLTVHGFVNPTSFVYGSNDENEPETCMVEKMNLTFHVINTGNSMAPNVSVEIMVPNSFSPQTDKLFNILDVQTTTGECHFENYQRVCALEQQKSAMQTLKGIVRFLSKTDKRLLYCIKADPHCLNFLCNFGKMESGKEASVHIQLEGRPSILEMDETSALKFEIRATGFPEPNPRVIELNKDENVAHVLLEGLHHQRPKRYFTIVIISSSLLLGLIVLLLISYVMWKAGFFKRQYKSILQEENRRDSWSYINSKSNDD
Sequence of VLA-4 (P05556 21-798): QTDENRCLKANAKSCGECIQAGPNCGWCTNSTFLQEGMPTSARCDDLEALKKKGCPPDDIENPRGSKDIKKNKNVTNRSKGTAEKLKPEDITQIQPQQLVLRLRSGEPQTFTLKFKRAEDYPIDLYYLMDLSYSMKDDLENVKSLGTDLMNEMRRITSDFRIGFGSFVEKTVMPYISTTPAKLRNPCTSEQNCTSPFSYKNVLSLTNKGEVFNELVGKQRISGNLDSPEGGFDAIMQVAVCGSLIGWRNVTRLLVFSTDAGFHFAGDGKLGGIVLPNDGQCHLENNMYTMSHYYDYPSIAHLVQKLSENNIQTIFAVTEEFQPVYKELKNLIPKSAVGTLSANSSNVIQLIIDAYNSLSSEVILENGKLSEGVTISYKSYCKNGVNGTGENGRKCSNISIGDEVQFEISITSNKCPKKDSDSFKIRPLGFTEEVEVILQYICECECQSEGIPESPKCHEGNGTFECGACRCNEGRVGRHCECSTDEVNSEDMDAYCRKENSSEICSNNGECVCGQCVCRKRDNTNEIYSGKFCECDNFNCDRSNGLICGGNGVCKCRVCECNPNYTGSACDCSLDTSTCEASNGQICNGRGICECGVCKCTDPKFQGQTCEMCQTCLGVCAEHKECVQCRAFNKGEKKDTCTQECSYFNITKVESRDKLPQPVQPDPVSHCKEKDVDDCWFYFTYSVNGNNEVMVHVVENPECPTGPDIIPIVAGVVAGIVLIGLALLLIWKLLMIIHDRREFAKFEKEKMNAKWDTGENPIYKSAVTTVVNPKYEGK

**Q.** For `Cc1ccccc1NC(=O)Nc1ccc(CC(=O)N2CCC[C@H]2C(=O)N[C@H](C)CC(=O)O)cc1` [oMePUPA-V], which “concentration needed to compete 3H-known inhibitor binding, relative to cold known inhibitor” value (VLA-4) is on record?
**A.** Its value is 10 fold.

**Q.** And the “Ames test (mutagenicity)” value (Ames test (mutagenicity))?
**A.** Its value is “clean”.
